Experimental data published in patent US10221158B2, “Heterocyclic constrained tricyclic sulfonamides as anti-cancer agents” (ICAHN SCHOOL OF MEDICINE AT MOUNT SINAI, priority 2015, dated 2019).

Tested on: H1650 lung cancer cells
Test: Cell viability assay (MTT, IC50 determination)
Format: cell-based
Details: Homo sapiens, NCI-H1650, 48 h drug treatment
Protocol: Cell Viability Assays (IC50 Determination)
Cell viability assays were performed according to Denizot, F. and R. Lang, Journal of Immunological Methods, 1986. 89(22): p. 271-277. H1650 lung cancer cells were plated at 150,000 cells per well in a 12 well plate. Twenty-four hours after plating, cells were treated as described with increasing concentrations of drug and control. Forty-eight hours after drug treatment, cells were treated with 100 μL of 3-(4,5-Dimethylthiazol-2-yl)-2,5-diphenyltetrazolium bromide (MTT) and incubated for 2 hours at 37 C. The MTT solution was subsequently replaced with 300 μL of n-propyl alcohol and re-aliquoted to a 96 well plate. Spectrophotometric analysis of each solution was performed using a 96 well plate reader at 600 nm in triplicate.

IC50: 15 µM
SMILES: O=S(=O)(N[C@@H]1COC[C@H](N2c3ccccc3CCc3ccccc32)[C@H]1O)c1ccc(OC(F)(F)F)cc1 (racemic) [Example 1, Rac-N-((3R,4R,5S)-5-(10,11-dihydro-5H-dibenzo[b,f]azepin-5-yl)-4-hydroxytetrahydro-2H-pyran-3-yl)-4-(trifluoromethoxy)benzenesulfonamide]
